Assay results taken from patent US20160022751A1, “NOVEL COMPOSITION FOR TREATING ALZHEIMER'S DISEASE AND IMPROVING COGNITIVE FUNCTION OF ALZHEIMER'S PATIENTS” (GANGNEUNG-WONJU NATIONAL UNIVERSITY INDUSTRY ACADEMY …, priority 2014, published 2016).

Legend:
ChAT = ChAT mRNA expression in N2a cells (RT-PCR); format: cell-based, mouse; details: single ginsenoside (FIG. 7A)
Source text: (§1) The present inventor reported that ChAT overexpressing human neural stem cells restored cognition with an increase of ACh levels in rat model (Park et al., Exp. Neurol., 234: 521-526, 2012). This implies that the increase of the ChAT level in cholinergic neurons plays a critical role in cognition enhancement and thus the cholinergic gene locus “VAChT/ChAT” can be a putative target for therapeutic approaches on AD. Thus the present inventor prepared transfected Neuro-2a (N2a) cells that over-express the human ChAT and APP (designated as “N2a.hChAT” and “N2a.hAPPswe”, respectively, FIG. 6) and the N2a.hChAT and N2a.hAPPswe cells were treated with the faction groups 1 to 5 isolated in the Example 3 at a centration of 50 μg/ml. Neuro-2a mouse neuroblastoma cells (Korean Cell Line Bank, Korea) were grown in DMEM supplemented with 10% fetal bovine serum (FBS), 100 U/m penicillin, and 100 μg/ml streptomycin (Invitrogen, USA) under 5% CO2 at 37° C. in tissue culture flasks. For all experiments, cells were grown to greater than 90% confluency and subjected to no more than 20 cell passages. The medium was changed every 2-3 days. Subconfluent cells were harvested and seeded at a density of 5×10^5 cells or 5×10^6 cells in poly-L-lysine-coated 35 mm or 60 mm culture plates. To recover the cells that are not completely saturated for analysis, poly-L-lysine coated 35 mm or 60 mm culture was seeded at a concentration of 5×10^5 or 5×10^6 cells on the plates. The extent of expression of hChAT and APP in the N2a.hChAT and N2a.hAAPswe cells treated with the faction groups 1 to 5 was quantified with RT-PCR using primers described in the below Table 2. At this time, beta-actin was used as an internal control.
(§2) Specifically, total RNA extracts from N2a cells were prepared using the Trizol method (Invitrogen, USA) and cDNA was synthesized from RNA by reverse transcription of 1 μg of total RNA using a reverse transcription system (Improm-II, Promega, USA) and oligo dT primers in a total volume of 20 μL. PCR amplification was performed using the primers described in Table 2 (Bioneer, Korea). Quantitative real-time PCR reactions were run on a Rotor-Gene 6000 (Corbett Research, Australia) using SensiMix™ SYBR Hi-ROX Kit (Bioline, U.K.) in 20 μL reaction mixtures. Each real-time-PCR master mix contained 10 μL 2× enzyme master mix, 7.0 μL RNase free water, 1 μL of each primer (10 pM each), and 1 μL diluted template. The PCR was performed with an initial pre-incubation step for 15 min at 95° C., followed by 45 cycles of 95° C. for 15 s, annealing at 52° C. for 15 s, and extension at 72° C. for 10 s. Melting curve analysis was used to confirm formation of the expected PCR product, and products from all assays were additionally tested with 1.2% agarose gel electrophoresis to confirm the correct lengths. An inter-run calibrator was used, and a standard curve was created for each gene to obtain PCR efficiencies. Relative sample expression levels were calculated using Rotor-Gene 6000 Series Software 1.7, and were expressed relative to β-actin and corrected for between-run variability. Data for the experimental samples were expressed as a fold unit the internal control gene.
(§3) In order to examine whether five ginsenosides affect the expression of ChAT related to the synthesis of acetylcholine and VAChT controlling extracellular secretion of acetylcholine, the present inventor analyzed the expression level of ChAT and VAChT after treating the five ginsenosides to N2a […] cells, respectively.

VAChT = VAChT mRNA expression in N2a cells (RT-PCR); format: cell-based, mouse; details: single ginsenoside (FIG. 7B)
Source text: as §1, §2, §3

acetylcholine = details: Benishin et al., Pharmacol., 42: 223-229, 1991; cited from earlier work

Compound	expression of ChAT mRNA (ChAT)	expression of VAChT mRNA (VAChT)	release of acetylcholine (ACh) from hippocampal slices (acetylcholine)
CC(C)=CCC[C@](C)(O[C@@H]1O[C@H](CO)[C@@H](O)[C@H](O)[C@H]1O)[C@H]1CC[C@]2(C)[C@@H]1[C@H](O)C[C@@H]1[C@@]3(C)CC[C@H](O)C(C)(C)[C@@H]3[C@@H](O[C@@H]3O[C@H](CO)[C@@H](O)[C@H](O)[C@H]3O)C[C@]12C [ginsenoside Rg1]	no significant increase	no significant increase	–
CC(C)=CCC[C@](C)(O[C@@H]1O[C@H](CO[C@@H]2O[C@H](CO)[C@@H](O)[C@H](O)[C@H]2O)[C@@H](O)[C@H](O)[C@H]1O)[C@H]1CC[C@]2(C)[C@@H]1[C@H](O)C[C@@H]1[C@@]3(C)CC[C@H](O[C@@H]4O[C@H](CO)[C@@H](O)[C@H](O)[C@H]4O[C@@H]4O[C@H](CO)[C@@H](O)[C@H](O)[C@H]4O)C(C)(C)[C@@H]3CC[C@]12C [ginsenoside Rb1]	no significant increase	no significant increase	facilitate the release of acetylcholine
